Test results published in patent US20240327364A1, “THERAPEUTIC TARGETING OF GPR68 TO INDUCE FERROPTOSIS” (University Of Maryland, Baltimore, priority 2023, published 2024).

Experiments:
SRPK3 = biological target: T1, SRPK3 (Homo sapiens, UniProt Q9UPE1); experiment: KinomeScan; assay type: binding; settings: read-out: % Control
T1 construct: purchased DiscoveRx (Fremont, CA)

FGFR1 = biological target: T2, FGFR1 (Homo sapiens, UniProt P11362); experiment: KinomeScan; assay type: binding; settings: read-out: % Control
T2 construct: purchased DiscoveRx (Fremont, CA)

PLK3 = biological target: T3, PLK3 (Homo sapiens, UniProt Q9H4B4); experiment: KinomeScan; assay type: binding; settings: read-out: % Control
T3 construct: purchased DiscoveRx (Fremont, CA)
T3 sequence (Q9H4B4 whole entry): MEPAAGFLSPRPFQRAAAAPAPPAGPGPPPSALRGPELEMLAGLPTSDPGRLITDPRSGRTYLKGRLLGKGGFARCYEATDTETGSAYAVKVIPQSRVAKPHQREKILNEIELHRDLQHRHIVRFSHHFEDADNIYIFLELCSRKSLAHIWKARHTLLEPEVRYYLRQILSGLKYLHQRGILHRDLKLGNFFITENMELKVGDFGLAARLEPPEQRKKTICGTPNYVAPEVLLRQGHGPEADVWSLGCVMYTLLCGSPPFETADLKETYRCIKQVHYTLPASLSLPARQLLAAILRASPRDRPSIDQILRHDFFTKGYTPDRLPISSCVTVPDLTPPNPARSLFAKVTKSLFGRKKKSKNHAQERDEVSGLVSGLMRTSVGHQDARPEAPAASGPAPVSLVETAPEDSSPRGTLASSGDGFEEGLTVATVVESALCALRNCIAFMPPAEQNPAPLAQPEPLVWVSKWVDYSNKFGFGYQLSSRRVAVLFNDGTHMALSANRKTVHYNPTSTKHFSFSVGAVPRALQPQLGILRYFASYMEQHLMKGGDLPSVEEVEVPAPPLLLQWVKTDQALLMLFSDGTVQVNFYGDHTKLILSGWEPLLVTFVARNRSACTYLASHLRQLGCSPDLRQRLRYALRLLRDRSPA

MAPKAPK5 = biological target: T4, MAPKAPK5 (Homo sapiens, UniProt Q8IW41); experiment: KinomeScan; assay type: binding; settings: read-out: % Control
T4 construct: purchased DiscoveRx (Fremont, CA)

CysLT1 = biological target: T5, CysLT1 (Homo sapiens, UniProt Q9Y271); experiment: GPCR Profiler; assay type: cell-based
T5 construct: host or cells: Chem-1 cells with Gα15
T5 sequence (Q9Y271 whole entry, species assumed): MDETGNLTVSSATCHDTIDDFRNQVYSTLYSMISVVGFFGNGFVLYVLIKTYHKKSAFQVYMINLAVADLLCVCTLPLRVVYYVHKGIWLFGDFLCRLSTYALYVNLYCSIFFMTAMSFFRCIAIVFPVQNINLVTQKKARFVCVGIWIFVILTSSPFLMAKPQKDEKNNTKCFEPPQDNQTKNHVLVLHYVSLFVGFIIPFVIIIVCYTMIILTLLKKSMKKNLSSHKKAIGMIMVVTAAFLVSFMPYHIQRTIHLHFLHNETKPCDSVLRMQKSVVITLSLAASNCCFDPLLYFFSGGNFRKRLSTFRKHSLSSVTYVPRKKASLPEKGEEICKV

PRP4 = biological target: T6, PRP4 (Homo sapiens, UniProt Q13523); experiment: KinomeScan; assay type: binding; settings: read-out: % Control
T6 construct: purchased DiscoveRx (Fremont, CA)
Experimental: (§1) GPCR profiling assays were performed by Millipore (St. Louis, MO) using in cells expressing Gα15, a promiscuous G protein that enhances GPCR coupling to downstream Ca2+ signaling pathways. KinomeScan was conducted by DiscoveRx (Fremont, CA).
(§2) To identify the target of OGM1, the molecule was profiled for binding in a panel of 442 kinases (KinomeScan™, DiscoveRx™) and assessed its activity against 158 GPCRs in a single-point assay in Chem-1 cells that uses a promiscuous Gα15 protein to trigger calcium flux (see Table 9 and Table 10, below). […] Table 9. KinomeScan (DiscoverRx) profiling of OGM1.

CDC2L5 = biological target: T7, CDC2L5 (Homo sapiens, UniProt Q14004); experiment: KinomeScan; assay type: binding; settings: read-out: % Control
T7 construct: purchased DiscoveRx (KinomeScan service)
Experimental: as §1, §2

[1] = biological target: T8, ABL1(F317L)-phosphorylated (Homo sapiens, UniProt P00519, F317L); experiment: KinomeScan; assay type: binding; settings: read-out: % Control
T8 construct: purchased DiscoveRx
T8 sequence (P00519 242-493 F317L limits assumed): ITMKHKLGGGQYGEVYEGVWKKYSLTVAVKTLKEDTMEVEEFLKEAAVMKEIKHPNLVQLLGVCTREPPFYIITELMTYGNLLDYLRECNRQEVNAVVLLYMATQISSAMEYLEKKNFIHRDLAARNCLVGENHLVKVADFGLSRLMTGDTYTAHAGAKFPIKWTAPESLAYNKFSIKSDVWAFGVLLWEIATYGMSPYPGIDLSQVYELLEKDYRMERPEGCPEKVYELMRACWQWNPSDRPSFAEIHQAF

CXCR3 = biological target: T9, CXCR3 (Homo sapiens, UniProt P49682); experiment: GPCR Profiler; assay type: cell-based
T9 construct: host or cells: Chem-1 cells with Gα15
T9 sequence (P49682 whole entry, species assumed): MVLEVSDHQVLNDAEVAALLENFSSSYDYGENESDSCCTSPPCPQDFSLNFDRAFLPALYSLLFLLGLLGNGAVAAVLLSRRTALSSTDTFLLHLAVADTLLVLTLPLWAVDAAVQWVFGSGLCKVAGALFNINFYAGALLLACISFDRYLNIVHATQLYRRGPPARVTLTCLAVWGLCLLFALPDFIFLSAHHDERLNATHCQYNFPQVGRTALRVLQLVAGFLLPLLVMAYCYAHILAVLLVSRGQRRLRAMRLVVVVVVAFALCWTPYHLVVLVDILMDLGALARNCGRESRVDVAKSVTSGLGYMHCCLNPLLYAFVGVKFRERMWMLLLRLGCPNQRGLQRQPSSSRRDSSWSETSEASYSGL

MRGX2 = biological target: T10, MRGX2 (Homo sapiens, UniProt Q96LB1); experiment: GPCR Profiler; assay type: cell-based
T10 construct: host or cells: Chem-1 cells expressing Gα15
T10 sequence (Q96LB1 whole entry, species assumed): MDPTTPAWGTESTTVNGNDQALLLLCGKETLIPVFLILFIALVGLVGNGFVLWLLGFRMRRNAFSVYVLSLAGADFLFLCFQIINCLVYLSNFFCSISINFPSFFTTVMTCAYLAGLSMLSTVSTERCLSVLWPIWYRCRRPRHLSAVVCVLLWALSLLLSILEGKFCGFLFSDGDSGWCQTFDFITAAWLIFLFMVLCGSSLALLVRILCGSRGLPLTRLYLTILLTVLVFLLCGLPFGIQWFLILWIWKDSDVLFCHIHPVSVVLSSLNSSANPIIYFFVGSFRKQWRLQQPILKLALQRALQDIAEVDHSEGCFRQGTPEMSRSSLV

D4 = biological target: T11, D4 (Homo sapiens, UniProt P21917); experiment: GPCR Profiler; assay type: cell-based
T11 construct: host or cells: Chem-1 cells expressing Gα15
T11 sequence (P21917 whole entry): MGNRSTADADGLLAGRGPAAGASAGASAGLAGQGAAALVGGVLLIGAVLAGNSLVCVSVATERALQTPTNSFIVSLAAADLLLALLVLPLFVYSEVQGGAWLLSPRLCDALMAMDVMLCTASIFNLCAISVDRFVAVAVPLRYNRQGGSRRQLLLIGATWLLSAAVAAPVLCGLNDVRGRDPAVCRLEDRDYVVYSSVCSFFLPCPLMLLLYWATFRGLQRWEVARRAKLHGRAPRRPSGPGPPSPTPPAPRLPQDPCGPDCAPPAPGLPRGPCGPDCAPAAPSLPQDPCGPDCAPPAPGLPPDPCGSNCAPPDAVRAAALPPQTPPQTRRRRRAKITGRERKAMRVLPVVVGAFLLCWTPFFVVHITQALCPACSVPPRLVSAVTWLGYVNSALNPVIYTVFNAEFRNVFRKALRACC

ANKK1 = biological target: T12, ANKK1 (Homo sapiens, UniProt Q8NFD2); experiment: KinomeScan; assay type: binding; settings: read-out: % Control
T12 construct: purchased DiscoveRx (Fremont, CA)

RIPK1 = biological target: T13, RIPK1 (Homo sapiens, UniProt Q13546); experiment: KinomeScan; assay type: binding; settings: read-out: % Control
T13 construct: purchased DiscoveRx (Fremont, CA)

PRKD3 = biological target: T14, PRKD3 (Homo sapiens, UniProt O94806); experiment: KinomeScan; assay type: binding; settings: read-out: % Control
T14 construct: purchased DiscoveRx (Fremont, CA)

CSNK1D = CSNK1D (Homo sapiens, UniProt P48730); experiment: KinomeScan; assay type: binding; settings: read-out: % Control
MERTK = biological target: T15, MERTK (Homo sapiens, UniProt Q12866); experiment: KinomeScan; assay type: binding; settings: read-out: % Control
T15 construct: purchased DiscoveRx (Fremont, CA)

CSNK1E = CSNK1E (Homo sapiens, UniProt P49674); experiment: KinomeScan; assay type: binding; settings: read-out: % Control
MAP4K3 = biological target: T16, MAP4K3 (Homo sapiens, UniProt Q8IVH8); experiment: KinomeScan; assay type: binding; settings: read-out: % Control
T16 construct: purchased DiscoveRx (Fremont, CA)
T16 sequence (Q8IVH8 whole entry): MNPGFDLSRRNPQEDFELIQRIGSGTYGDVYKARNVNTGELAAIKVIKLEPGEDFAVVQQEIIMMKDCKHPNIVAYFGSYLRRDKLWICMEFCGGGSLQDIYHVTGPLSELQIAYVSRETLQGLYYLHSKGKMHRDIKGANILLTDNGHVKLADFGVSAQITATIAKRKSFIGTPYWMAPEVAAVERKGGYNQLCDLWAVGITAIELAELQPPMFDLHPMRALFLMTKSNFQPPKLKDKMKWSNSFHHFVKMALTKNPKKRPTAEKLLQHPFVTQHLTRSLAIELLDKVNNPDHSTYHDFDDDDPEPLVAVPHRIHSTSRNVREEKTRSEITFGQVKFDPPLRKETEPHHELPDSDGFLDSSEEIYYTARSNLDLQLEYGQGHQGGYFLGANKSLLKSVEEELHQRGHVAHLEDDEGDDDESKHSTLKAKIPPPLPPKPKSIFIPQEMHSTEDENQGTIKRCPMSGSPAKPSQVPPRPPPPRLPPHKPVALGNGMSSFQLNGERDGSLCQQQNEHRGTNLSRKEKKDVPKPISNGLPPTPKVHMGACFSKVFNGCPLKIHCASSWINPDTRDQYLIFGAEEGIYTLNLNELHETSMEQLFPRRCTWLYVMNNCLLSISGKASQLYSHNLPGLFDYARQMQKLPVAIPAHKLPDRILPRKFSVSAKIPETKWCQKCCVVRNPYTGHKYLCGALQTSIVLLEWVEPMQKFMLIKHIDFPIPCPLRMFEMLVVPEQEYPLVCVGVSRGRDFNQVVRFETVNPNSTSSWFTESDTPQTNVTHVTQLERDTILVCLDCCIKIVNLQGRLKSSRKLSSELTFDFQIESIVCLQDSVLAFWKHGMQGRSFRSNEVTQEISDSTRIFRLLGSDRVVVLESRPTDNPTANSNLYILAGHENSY

PTH1 = biological target: T17, PTH1 (Homo sapiens, UniProt Q03431); experiment: GPCR Profiler; assay type: cell-based
T17 construct: host or cells: Chem-1 cells with Gα15
T17 sequence (Q03431 27-593): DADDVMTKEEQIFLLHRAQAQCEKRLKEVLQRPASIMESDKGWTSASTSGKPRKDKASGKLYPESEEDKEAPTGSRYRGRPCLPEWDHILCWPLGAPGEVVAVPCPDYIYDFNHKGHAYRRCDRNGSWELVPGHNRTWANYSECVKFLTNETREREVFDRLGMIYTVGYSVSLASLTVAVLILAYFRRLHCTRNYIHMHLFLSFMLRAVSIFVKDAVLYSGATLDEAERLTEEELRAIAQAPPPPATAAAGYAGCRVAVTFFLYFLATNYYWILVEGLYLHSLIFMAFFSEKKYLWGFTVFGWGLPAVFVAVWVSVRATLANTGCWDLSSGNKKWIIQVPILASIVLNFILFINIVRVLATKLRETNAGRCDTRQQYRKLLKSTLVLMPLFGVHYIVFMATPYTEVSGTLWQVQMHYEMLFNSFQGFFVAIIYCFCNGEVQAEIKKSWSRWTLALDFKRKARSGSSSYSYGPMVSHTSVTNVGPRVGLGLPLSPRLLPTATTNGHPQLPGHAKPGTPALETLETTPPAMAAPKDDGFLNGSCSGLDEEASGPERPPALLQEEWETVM

CAMK2B = biological target: T18, CAMK2B (Homo sapiens, UniProt Q13554); experiment: KinomeScan; assay type: binding; settings: read-out: % Control
T18 construct: purchased DiscoveRx (KinomeScan service)

ALK = biological target: T19, ALK (Homo sapiens, UniProt Q9UM73); experiment: KinomeScan; assay type: binding; settings: read-out: % Control
T19 construct: purchased DiscoveRx (Fremont, CA)

CB1 = biological target: T20, CB1 (Homo sapiens, UniProt P21554); experiment: GPCR Profiler; assay type: cell-based
T20 construct: host or cells: Chem-1 cells with promiscuous Gα15
T20 sequence (P21554 whole entry, species assumed): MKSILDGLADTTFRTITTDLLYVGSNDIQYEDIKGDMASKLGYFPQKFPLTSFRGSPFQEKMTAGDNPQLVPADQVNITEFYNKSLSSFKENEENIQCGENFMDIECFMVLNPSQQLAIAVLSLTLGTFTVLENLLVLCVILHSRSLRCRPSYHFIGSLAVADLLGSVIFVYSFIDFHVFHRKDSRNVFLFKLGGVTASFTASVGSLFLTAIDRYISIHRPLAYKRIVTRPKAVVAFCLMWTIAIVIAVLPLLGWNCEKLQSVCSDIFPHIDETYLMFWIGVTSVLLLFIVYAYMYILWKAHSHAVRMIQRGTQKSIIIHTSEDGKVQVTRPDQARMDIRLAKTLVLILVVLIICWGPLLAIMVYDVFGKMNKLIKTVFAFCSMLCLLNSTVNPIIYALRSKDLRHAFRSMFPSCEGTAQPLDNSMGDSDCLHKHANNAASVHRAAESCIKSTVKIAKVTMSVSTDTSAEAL

CDK8 = biological target: T21, CDK8 (Homo sapiens, UniProt P49336); experiment: KinomeScan; assay type: binding; settings: read-out: % Control
T21 construct: purchased DiscoveRx (KinomeScan service)

MAP3K4 = biological target: T22, MAP3K4 (Homo sapiens, UniProt Q9Y6R4); experiment: KinomeScan; assay type: binding; settings: read-out: % Control
T22 construct: purchased DiscoveRx (Fremont, CA)

NEK6 = biological target: T23, NEK6 (Homo sapiens, UniProt Q9HC98); experiment: KinomeScan; assay type: binding; settings: read-out: % Control
T23 construct: purchased DiscoveRx

CAMKK1 = biological target: T24, CAMKK1 (Homo sapiens, UniProt Q8N5S9); experiment: KinomeScan; assay type: binding; settings: read-out: % Control
T24 construct: purchased DiscoveRx (KinomeScan service)
T24 sequence (Q8N5S9 whole entry): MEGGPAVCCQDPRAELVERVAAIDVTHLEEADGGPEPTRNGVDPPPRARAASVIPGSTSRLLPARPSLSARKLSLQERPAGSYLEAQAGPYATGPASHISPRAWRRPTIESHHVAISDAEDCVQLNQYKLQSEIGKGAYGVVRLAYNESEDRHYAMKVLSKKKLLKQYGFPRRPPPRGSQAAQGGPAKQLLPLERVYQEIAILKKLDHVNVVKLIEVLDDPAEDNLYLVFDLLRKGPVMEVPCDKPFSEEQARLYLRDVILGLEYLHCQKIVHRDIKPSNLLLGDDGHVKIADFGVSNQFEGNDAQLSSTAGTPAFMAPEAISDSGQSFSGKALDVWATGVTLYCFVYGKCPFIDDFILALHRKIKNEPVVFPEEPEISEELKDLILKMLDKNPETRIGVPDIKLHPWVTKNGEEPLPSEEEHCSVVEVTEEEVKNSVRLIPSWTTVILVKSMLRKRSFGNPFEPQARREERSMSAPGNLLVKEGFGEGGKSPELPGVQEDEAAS

U138 spheroids = experiment: GBM spheroid assay; assay type: cell-based, human
Experimental: One thousand cells per well were plated in an ultra-low attachment, round-bottomed, 96-well plate, and spheroids were allowed to form for 3 days. Wells were then exposed to concentrations of vehicle, OGM2 or TMZ or a combination for 3 days. Spheroids were imaged in brightfield at 10× using z-stacks that were collapsed into z-projections in the Gen5 software using the LionheartFx (BioTek™). Automated measurements of the spheroid area were obtained using Gen5 software.
Tumor spheroid cultures are a more physiological model of tumor growth than typical 2D cell culture. Temozolomide sensitive U87 (FIG. 20A) and Temozolomide insensitive U138 (FIG. 20B) glioblastoma cell lines were plated in low attachment round bottom 96-well plates and allowed to form tumor spheroids for 3 days (T0). At T0, spheroids were imaged using Lionheart™ (HCS) High-Content Imaging Systems (Biotek™) and then were exposed to increasing doses of either Temozolomide or OGM2. After 5 days of treatment the spheroids were imaged again (T5). The size (area) of the spheroids after 5 days of treatment was quantified, and the average size of the spheroids at TO is depicted in red.

A549 = experiment: Clonogenicity (crystal violet); assay type: cell-based; settings: 8 days
Experimental: A549 lung cancer cells were plated at 300 cells per well in a 6-well plate and on the next day were treated with increasing concentrations of OGM2 for 8 days. The plate was fixed with formalin and stained with crystal violet. See FIG. 27B for results at the indicated concentrations.

`CCc1ccc2c(c1)C1(NN=C(c3cccc4ccccc34)S1)C(=O)N2` (stereo not shown) [OGM1, 5-ethyl-5′-naphthalen-1-ylspiro[1H-indole-3,2′-3H-1,3,4-thiadiazole]-2-one] gave a remaining binding at 10 µM (SRPK3) of 100%, a remaining binding at 10 µM (FGFR1) of 100% and a remaining binding at 10 µM (PLK3) of 100%. For the same compound, the remaining binding at 10 µM (MAPKAPK5) was 86%, the Antagonism (CysLT1; 10 uM) was −2.4 and the Agonism (CysLT1; 12.5 uM) was 0.8. For the same compound, the remaining binding at 10 µM (PRP4) was 100%, the remaining binding at 10 µM (CDC2L5) was 99% and the remaining binding at 10 µM [1] was 92%. For the same compound, the Antagonism (CXCR3; 10 uM) was −2, the Agonism (CXCR3; 12.5 uM) was 0.1 and the Antagonism (MRGX2; 10 uM) was 5.1. It also gave an Agonism (MRGX2; 12.5 uM) of −0.1, an Antagonism (D4; 10 uM) of −16.3 and an Agonism (D4; 12.5 uM) of 0.6. For the same compound, the remaining binding at 10 µM (ANKK1) was 100%, the remaining binding at 10 µM (RIPK1) was 100% and the remaining binding at 10 µM (PRKD3) was 100%. The remaining binding at 10 µM (CSNK1D) was 100%, the remaining binding at 10 µM (MERTK) was 80% and the remaining binding at 10 µM (CSNK1E) was 91%. For the same compound, the remaining binding at 10 µM (MAP4K3) was 100%, the Antagonism (PTH1; 10 uM) was 2.2 and the Agonism (PTH1; 12.5 uM) was 0.7. The remaining binding at 10 µM (CAMK2B) was 60%, the remaining binding at 10 µM (ALK) was 100% and the Antagonism (CB1; 10 uM) was −6.8. It also gave an Agonism (CB1; 12.5 uM) of −0.1, a remaining binding at 10 µM (CDK8) of 100% and a remaining binding at 10 µM (MAP3K4) of 100%. It also gave a remaining binding at 10 µM (NEK6) of 100% and a remaining binding at 10 µM (CAMKK1) of 86%.
For `CCc1ccc2c(c1)C1(NN=C(c3ccccc3)S1)C(=O)N2` (stereo not shown) [OGM2], the “growth of 3D spheroids” value (U138 spheroids) was “significantly decreased the growth of U138 3D spheroids” and the clonogenicity (A549) was “reduced the clonogenicity of lung cancer cells”.
